One data set has as its system HCV RNA replicon ET. Description: HCV RNA replicon luciferase reporter assay, antiviral activity. The data set is classed as cell-based. The following applies: ET replicon cells, 72 h, LUC activity; for EC50: concentration reducing viral replication by 50%; for EC90: concentration reducing viral replication by 90%.
For another data set, the system named is HIV-1IIIB. The data set is described as follows: HIV MTS cytoprotection assay in CEM-SS cells. Particulars: 6 days post-infection, concentration inhibiting virus replication by 50%. The data set is classed as cell-based, human immunodeficiency virus-1.
For data set [1], the system named is human hepatoma cell line ET. Description: Cytotoxicity in the replicon cell line, colorimetric assay of cell numbers. Particulars: ET cells, 72 h; for IC50: read-out: Cytotoxicity IC50, concentration inhibiting cell viability by 50%; for IC90: read-out: Cytotoxicity IC90, concentration inhibiting cell viability by 90%. The text has this: Compounds were examined in the human hepatoma cell line ET (lub ubi heo/ET), a HCV RNA replicon containing a stable luciferase (LUC) reporter. The HCV RNA replicon ET contains the 5′ end of HCV (with the HCV Internal Ribosome Entry Site (IRES) and the first few amino acids of the HCV core protein) which drives the production of a firefly luciferase (LUC), ubiquitin, and neomycin phosphotransferase (NeoR) fusion protein. Ubiquitin cleavage releases the LUC and NeoR proteins. The EMCV IRES element controls the translation of the HCV […] NS3-NS5. The NS3 protein cleaves the HCV polyprotein to release the mature NS3, NS4A, NS4B, NS5A and NS5B proteins that are required for HCV replication. At the 3′ end of the replicon is the authentic 3′ NTR of HCV. The activity of the LUC reporter is directly proportional to HCV replication levels and positive-control antiviral compounds produce a reproducible antiviral response using the LUC endpoint.
The compounds were dissolved in DMSO at five half-log concentrations each, ranging from either 0.02 to 2.0 μM, 0.03 to 3 μM, […], or 1 to 100 μM. Subconfluent cultures of the ET line were plated out into 96 well plates dedicated for the analysis of cell numbers (cytotoxicity) or antiviral activity and the next day the compounds were added to the appropriate wells. The cells were processed 72 h later when the cells were still subconfluent. […] The activity of the LUC reporter is directly proportional to HCV RNA levels in the human cell line. The HCV-replicon assay was validated in parallel experiments using interferon-alpha-2b as a positive control.
For orientation: In antiviral work, replicon cells carry a viral genome segment that copies itself.

One may read the EC50 as the concentration that produces a half-maximal response. High values mean a need for much substance, low ones an effect from little substance. One may read the EC90 as the point of the concentration-response curve where the effect stands at 90%. Low readings indicate an effect from little substance, high ones a need for much substance. The term IC50 denotes the point on the concentration scale where inhibition reaches its midpoint. By IC90 is commonly meant the point of the concentration-response curve where the effect stands at 90%.

Structures can show the parent of a compound that is named as a salt.

Turning to “3-(ethoxy)-4-(gamma-hydroxymethylleucine)cyclosporin [W]”, the EC50 with HCV RNA replicon ET stood at 130 nM; in the data set with HIV-1IIIB, 680 nM. In the data set with HCV RNA replicon ET, this compound yielded an EC90 of 510 nM.

In the data set with HCV RNA replicon ET, “3-(isopropoxy)-4-(gamma-hydroxymethylleucine)cyclosporin [V]” gave an EC50 of 360 nM and an EC90 of 1200 nM. The compound also showed an EC50 with HIV-1IIIB of 440 nM.

As to `C/C=C/C[C@@H](C)[C@@H](O)[C@H]1C(=O)N[C@@H](CC)C(=O)N(C)C(OC)C(=O)N(C)[C@@H](CC(C)C)C(=O)N[C@@H](C(C)C)C(=O)N(C)[C@@H](CC(C)C)C(=O)N[C@@H](C)C(=O)N[C@H](C)C(=O)N(C)[C@@H](CC(C)C)C(=O)N(C)[C@@H](CC(C)C)C(=O)N(C)[C@@H](C(C)C)C(=O)N1C` (stereo partly drawn) [A, 3-methoxycyclosporin], in data set [1], the IC50 turned out to be 2330 nM and the IC90 is greater than 3000 nM. Also, in the data set on HCV RNA replicon ET, the EC90 came to 220 nM.

Take `C/C=C/C[C@@H](C)[C@@H](O)[C@H]1C(=O)N[C@@H](CC)C(=O)N(C)[C@H](OCCN)C(=O)N(C)[C@@H](CC(C)C)C(=O)N[C@@H](C(C)C)C(=O)N(C)[C@@H](CC(C)C)C(=O)N[C@@H](C)C(=O)N[C@H](C)C(=O)N(C)[C@@H](CC(C)C)C(=O)N(C)[C@@H](CC(C)C)C(=O)N(C)[C@@H](C(C)C)C(=O)N1C` [Compound B, 3-(2-aminoethoxy)cyclosporin]: in data set [1], the IC50 was found to be 6310 nM and the IC90 is 20300 nM. In the data set on HCV RNA replicon ET, this compound yielded a half-maximal effective concentration (EC50) of 1180 nM and an EC90 of 2720 nM.

Regarding `C/C=C/C[C@@H](C)[C@@H](O)[C@H]1C(=O)N[C@@H](CC)C(=O)N(C)[C@H](OCCN(C)C)C(=O)N(C)[C@@H](CC(C)C)C(=O)N[C@@H](C(C)C)C(=O)N(C)[C@@H](CC(C)C)C(=O)N[C@@H](C)C(=O)N[C@H](C)C(=O)N(C)[C@@H](CC(C)C)C(=O)N(C)[C@@H](CC(C)C)C(=O)N(C)[C@@H](C(C)C)C(=O)N1C` [Compound C, 3-(2-N,N-dimethylaminoethoxy)cyclosporin], in data set [1], the concentration for half-maximal inhibition (IC50) was greater than 3000 nM and the IC90 was greater than 3000 nM. In the data set on HCV RNA replicon ET, this compound yielded an EC50 of 180 nM and an EC90 of 640 nM.

In the case of `CC=CCC(C)C(O)C1C(=O)NC(CC)C(=O)N(C)C(OCC(CC)CC)C(=O)N(C)C(CC(C)C)C(=O)NC(C(C)C)C(=O)N(C)C(CC(C)C)C(=O)NC(C)C(=O)NC(C)C(=O)N(C)C(CC(C)C)C(=O)N(C)C(CC(C)C)C(=O)N(C)C(C(C)C)C(=O)N1C` (stereo not drawn) [Compound E, 3-(2-ethylbutoxy)cyclosporin], in data set [1], the IC50 was 15600 nM.

Take `C/C=C/C[C@@H](C)[C@@H](O)[C@H]1C(=O)N[C@@H](CC)C(=O)N(C)C(OCCNC)C(=O)N(C)[C@@H](CC(C)C)C(=O)N[C@@H](C(C)C)C(=O)N(C)[C@@H](CC(C)C)C(=O)N[C@@H](C)C(=O)N[C@H](C)C(=O)N(C)[C@@H](CC(C)C)C(=O)N(C)[C@@H](CC(C)C)C(=O)N(C)[C@@H](C(C)C)C(=O)N1C` (stereo partly drawn) [Compound I, 3-[2-(N-methylamino)ethoxy]cyclosporin]: in data set [1], the IC50 was found to be 2830 nM and the IC90 amounted to 17400 nM. In the data set with HCV RNA replicon ET, this compound registered an EC50 of 1010 nM and an EC90 of 1870 nM.

Turning to `C/C=C/C[C@@H](C)[C@@H](O)[C@H]1C(=O)N[C@@H](CC)C(=O)N(C)[C@H](OCC(C)(C)C)C(=O)N(C)[C@@H](CC(C)C)C(=O)N[C@@H](C(C)C)C(=O)N(C)[C@@H](CC(C)C)C(=O)N[C@@H](C)C(=O)N[C@H](C)C(=O)N(C)[C@@H](CC(C)C)C(=O)N(C)[C@@H](CC(C)C)C(=O)N(C)[C@@H](C(C)C)C(=O)N1C` [F, 3-(2,2-dimethylpropoxy)cyclosporin], in data set [1], the IC50 is greater than 20000 nM. The same compound had an EC50 in the data set on HCV RNA replicon ET of 17000 nM.

Consider `C/C=C/C[C@@H](C)[C@@H](O)[C@H]1C(=O)N[C@@H](CC)C(=O)N(C)C(OCCO)C(=O)N(C)[C@@H](CC(C)C)C(=O)N[C@@H](C(C)C)C(=O)N(C)[C@@H](CC(C)C)C(=O)N[C@@H](C)C(=O)N[C@H](C)C(=O)N(C)[C@@H](CC(C)C)C(=O)N(C)[C@@H](CC(C)C)C(=O)N(C)[C@@H](C(C)C)C(=O)N1C` (stereo partly drawn) [G, 3-(2-hydroxyethoxy)cyclosporin], for which, in data set [1], the IC50 stood at 10300 nM and the IC90 is greater than 20000 nM. In the data set with HCV RNA replicon ET, this compound yielded an EC50 of less than 200 nM and an EC90 of 570 nM.

For `C/C=C/C[C@@H](C)[C@@H](O)[C@H]1C(=O)N[C@@H](CC)C(=O)N(C)C(OCCN(C)C(C)C)C(=O)N(C)[C@@H](CC(C)C)C(=O)N[C@@H](C(C)C)C(=O)N(C)[C@@H](CC(C)C)C(=O)N[C@@H](C)C(=O)N[C@H](C)C(=O)N(C)[C@@H](CC(C)C)C(=O)N(C)[C@@H](CC(C)C)C(=O)N(C)[C@@H](C(C)C)C(=O)N1C` (stereo partly drawn) [J, 3-[2-(N-methyl-N-isopropylamino)ethoxy]cyclosporin], in data set [1], the IC50 was 8200 nM and the IC90 turned out to be 19600 nM. In the data set on HCV RNA replicon ET, this compound had an EC50 of 150 nM and an EC90 of 530 nM.

For the compound `CC=CCC(C)C(O)C1C(=O)NC(CC)C(=O)N(C)C(OCCN2CCCCC2)C(=O)N(C)C(CC(C)C)C(=O)NC(C(C)C)C(=O)N(C)C(CC(C)C)C(=O)NC(C)C(=O)NC(C)C(=O)N(C)C(CC(C)C)C(=O)N(C)C(CC(C)C)C(=O)N(C)C(C(C)C)C(=O)N1C` (stereo not drawn) [K, 3-[2-(piperidin-1-yl)ethoxy]cyclosporin], in data set [1], the IC50 was 5500 nM and the IC90 was determined as 17800 nM. In the data set on HCV RNA replicon ET, this compound yielded an EC50 of 260 nM and an EC90 of 590 nM.

As to `C/C=C/C[C@@H](C)[C@@H](O)[C@H]1C(=O)N[C@@H](CC)C(=O)N(C)C(OCC)C(=O)N(C)[C@@H](CC(C)C)C(=O)N[C@@H](C(C)C)C(=O)N(C)[C@@H](CC(C)C)C(=O)N[C@@H](C)C(=O)N[C@H](C)C(=O)N(C)[C@@H](CC(C)C)C(=O)N(C)[C@@H](CC(C)C)C(=O)N(C)[C@@H](C(C)C)C(=O)N1C` (stereo partly drawn) [M, 3-ethoxycyclosporin], in data set [1], the IC50 is greater than 20000 nM and the IC90 is greater than 20000 nM. In the data set on HCV RNA replicon ET, the EC50 turned out to be 3350 nM and the EC90 was determined as 6110 nM.

For `CC=CCC(C)C(O)C1C(=O)NC(CC)C(=O)N(C)C(SCCN(C)C)C(=O)N(C)C(CC(C)(C)O)C(=O)NC(C(C)C)C(=O)N(C)C(CC(C)C)C(=O)NC(C)C(=O)NC(C)C(=O)N(C)C(CC(C)C)C(=O)N(C)C(CC(C)C)C(=O)N(C)C(C(C)C)C(=O)N1C` [MeSO2, [(R)-2-(N,N-dimethylamino)ethylthio-Sar]3[4′-hydroxy-MeLeu]4 cyclosporin], in data set [1], the IC50 is greater than 2000 nM and the IC90 is greater than 2000 nM. In the data set on HCV RNA replicon ET, the EC50 turned out to be 160 nM and the EC90 was 500 nM.

In the case of `CC=CCC(C)C(O)C1C(=O)NC(CC)C(=O)N(C)C(SCCN(C)C)C(=O)N(C)C(CC(C)(C)O)C(=O)NC(C(C)C)C(=O)N(C)C(CC(C)C)C(=O)NC(C)C(=O)NC(C)C(=O)N(C)C(CC(C)C)C(=O)N(C)C(CC(C)C)C(=O)N(C)C(C(C)C)C(=O)N1C` [acetate, [(R)-2-(N,N-dimethylamino)ethylthio-Sar]3[4′-hydroxy-MeLeu]4 cyclosporin], in data set [1], the IC50 was greater than 2000 nM and the IC90 was greater than 2000 nM. The compound also gave an EC90 in the data set with HCV RNA replicon ET of 300 nM.

With `CC=CCC(C)C(O)C1C(=O)NC(CC)C(=O)N(C)C(SCCN(C)C)C(=O)N(C)C(CC(C)(C)O)C(=O)NC(C(C)C)C(=O)N(C)C(CC(C)C)C(=O)NC(C)C(=O)NC(C)C(=O)N(C)C(CC(C)C)C(=O)N(C)C(CC(C)C)C(=O)N(C)C(C(C)C)C(=O)N1C` [hydrochloride, [(R)-2-(N,N-dimethylamino)ethylthio-Sar]3[4′-hydroxy-MeLeu]4 cyclosporin], in data set [1], the IC50 was greater than 2000 nM and the IC90 is greater than 2000 nM. Moreover, in the data set on HCV RNA replicon ET, the EC50 is 110 nM and the EC90 turned out to be 380 nM.

In the case of `CC=CCC(C)C(O)C1C(=O)NC(CC)C(=O)N(C)C(SCCN(C)C)C(=O)N(C)C(CC(C)(C)O)C(=O)NC(C(C)C)C(=O)N(C)C(CC(C)C)C(=O)NC(C)C(=O)NC(C)C(=O)N(C)C(CC(C)C)C(=O)N(C)C(CC(C)C)C(=O)N(C)C(C(C)C)C(=O)N1C` [phosphate, [(R)-2-(N,N-dimethylamino)ethylthio-Sar]3[4′-hydroxy-MeLeu]4 cyclosporin], in data set [1], the IC50 is greater than 2000 nM and the IC90 was greater than 2000 nM. In the data set with HCV RNA replicon ET, this compound displayed an EC50 of 130 nM and an EC90 of 470 nM.

Take “[(R)-2-(N,N-dimethylamino)ethylthio-Sar]3[4′-hydroxy-MeLeu]4 cyclosporin [citrate]”: in data set [1], the IC50 was greater than 2000 nM and the IC90 is greater than 2000 nM. In the data set on HCV RNA replicon ET, this compound came in with an EC50 of 110 nM and an EC90 of 410 nM.

For the compound “[(R)-2-(N,N-dimethylamino)ethylthio-Sar]3[4′-hydroxy-MeLeu]4 cyclosporin [propionate]”, in data set [1], the IC50 was greater than 2000 nM and the IC90 is greater than 2000 nM. Also, in the data set on HCV RNA replicon ET, the EC50 amounted to 100 nM and the EC90 came out at 320 nM.

(Values after patent US7718767B2, “3-ether and 3-thioether substituted cyclosporin derivatives for the treatment and prevention of hepatitis C infection” (Scynexis, Inc., priority 2006, dated 2010).)
